Test results: patent publication US12121596B2, “Near infrared fluorescent dyes, formulations and related methods” (Washington University, priority 2019, dated 2024)
Positions of bridges follow the written chain, without caps; N, C: chain ends. Non-standard residues stand in square brackets, D forms with d. Residues, ends and D or L forms follow the SMILES beside them. Primed or numbered codes have the meaning given here. *: point of attachment. X1 = CC1(C)C(/C=C/C=C/C=C/C=C2/N(CCC(=O)*)c3ccc4ccccc4c3C2(C)C)=[N+](CCC(=O)[O-])c2ccc3ccccc3c21; Cypate′ = not defined here

Assays:
4T1 luc/GFP cells = assay: In vitro blocking of LS301 binding and internalization; assay type: cell-based, murine
Protocol: For in vitro blocking studies of LS301, 4T1 luc/GFP cells were treated for 24 h with LS301 alone, blocking peptide LCKLSL plus LS301, scrambled blocking peptide LGKLSL plus LS301, or unlabeled LS301 analog LS637 plus LS301. Cells were prepared for confocal microscopy.

[1] = test system: breast cancer patient-derived xenograft; assay: In vivo NIR imaging of tumor retention; parameters: species or system mice; conditions: for tumor retention: control experiments, patient-derived xenograft
Protocol: To establish the various tumor models, nude, Balb/c, or C57BL6 mice were injected with 10^5-10^7 tumor cells subcutaneously on unilateral or bilateral flanks. In some cases, spontaneous tumor models were used. Animals injected subcutaneously with saline served as sham tumor controls. For near-infrared imaging, 100 μL volumes of 60 μM LS301 or cypate in PBS were injected intravenously by lateral tail vein, and animals were imaged using a Pearl Small Animal Imager (LI-COR Biotechnology, Lincoln, NE, USA) at the indicated time points. In some experiments, probes were formulated in 1% albumin in PBS. Animals were shaved using commercially available hair removal equipment and products before imaging. For experiments involving further tissue analysis, animals were anesthetized with isoflurane and euthanized by cervical dislocation under anesthesia. Organs were harvested by surgical dissection. For quantitative organ biodistribution studies, individual regions of interest were drawn around each organ of interest, and fluorescence was quantified using the Pearl Small Animal Imager software.

heart = conditions: in vivo
diverse tumors = assay: LS838 fluorescence and tumor retention
[2] = test system: lung (A549), breast (MDA-MB-231 and 4T1), and myeloid leukemia (HL60) cell lines; assay: Cellular uptake in cancer cell lines, live-cell imaging; assay type: cell-based; conditions: A549, MDA-MB-231, 4T1, HL60
Protocol: In general, cultured cancer cells were grown and incubated with the indicated amount of probe in Lab-Tek 8-chambered slides for the indicated time durations. Cells were washed with PBS at selected time points and underwent conventional slide preparation, ICC if indicated, and viewing under epifluorescence or confocal. For live-cell imaging of LS301, internalization at 37° C. in human dermal fibroblasts (Coriell Cell Technologies) and tumor cells including 4T1luc, MDA-MB-231, 5TGM, A549, and HL60 (ATCC) cells were cultured in appropriate media supplemented with 10% […] and penicillin/streptomycin and incubated at 37° C. in 5% CO2 incubator. The cells were grown on Lab-Tek 8-chamber slides (Nunc Inc. Rochester, NY) in the culture medium overnight before the experiment. The compounds were dissolved in 20% DMSO in […] PBS (pH 7.4) (Sigma, St. Louis, MO) for stocking solution and mixed with culture medium to reach the final concentration. Cells were incubated with 1 μM compounds in chamber slides at different time points at 37° C. After LS301 treatment, the culture media was removed and followed by adding culture media containing SYTO 13 nuclear dye from (Thermo Fisher Scientific, Waltham, MA) for 45 minutes at 37° C. For assessing cellular colocalization of LS301 with lipid rafts, the Vybrant AlexaFluor 488 Lipid Raft Labeling Kit (Thermo Fisher Scientific, Waltham, MA, USA) was used per the manufacturer's instructions. […]. LS301 and AlexaFluor 488 fluorescence were imaged using the cypate filter set (Ex/Em 750-800 nm/818-873 nm) and fluorescein isothiocyanate (FITC) filter set (Ex/Em 460-500/510-560 nm), respectively.

## LCKLSL
4T1 luc/GFP cells
  effect on binding and internalization of LS301 in cells: inhibited the binding and internalization of LS301

## Cypate-cyclo(Cys-Arg-Gly-Asp-Ser-Pro-Cys)-Lys-OH ({Cypate′}-CRGDSPCK-OH; disulfide 1-7) [scrambled LS301 peptide analog]
[1]
  tumor retention: not retained

## COc1cccc2c1C(=O)c1c(O)c3c(c(O)c1C2=O)C[C@@](O)(C(=O)CO)C[C@@H]3O[C@H]1C[C@H](NC(=O)CC[N+]2=C(/C=C/C=C/C=C/C=C3/N(CCC(=O)N[C@@H]4CSSC[C@@H](C(=O)N[C@@H](CCCCN)C(=O)O)NC(=O)[C@@H]5CCCN5C(=O)[C@H](CO)NC(=O)[C@H](CC(=O)O)NC(=O)[C@H](CCCNC(=N)N)NC(=O)CNC4=O)c4ccc5ccccc5c4C3(C)C)C(C)(C)c3c2ccc2ccccc32)[C@H](O)[C@H](C)O1 [LS766, doxorubicin-cypate-cyclic(DCys-Gly-Arg-Asp-Ser-Pro-Cys)-Lys-OH]
heart
  accumulation in the heart: does not accumulate in the heart

## CC1(C)C(/C=C/C=C/C=C/C=C2/N(CCC(=O)N[C@@H]3CSSC[C@@H](C(=O)N[C@@H](Cc4ccc(O)cc4)C(=O)O)NC(=O)[C@@H]4CCCN4C(=O)[C@H](CO)NC(=O)[C@H](CC(=O)O)NC(=O)[C@H](CCCNC(=N)N)NC(=O)CNC3=O)c3ccc4ccccc4c3C2(C)C)=[N+](CCC(=O)[O-])c2ccc3ccccc3c21 [LS838, cypate-Cyclo(Cys-Gly-Arg-Asp-Ser-Pro-Cys)-Tyr-OH] (X1-[dC]GRDSPCY-OH; disulfide 1-7)
Diverse tumors
  retention in tumors: selectively remains in diverse tumors without significant loss of fluorescence over time

## CC1(C)C(/C=C/C=C/C=C/C=C2/N(CCC(=O)O)c3ccc4ccccc4c3C2(C)C)=[N+](CCC(=O)[O-])c2ccc3ccccc3c21 [Cypate]
[1]
  tumor retention: not retained
[1]; in vivo
  tumor retention with or without albumin formulation: did not retain
[2]
  retention in cell lines: only transient retention
